Structures are written as SMILES. Where a name gives a salt, the structure may show the parent alone.

The record followed here is patent US20110269811A1, “INHIBITORS OF SEMICARBAZIDE-SENSITIVE AMINE OXIDASE (SSAO) AND VAP-1 MEDIATED ADHESION USEFUL FOR TREATMENT AND PREVENTION OF DISEASES” (priority 2006, published 2011).

The term melting point denotes the temperature, or range, at which the solid turns liquid. For `NC/C(=C\F)CCc1cccc(F)c1.O=C(O)C(F)(F)F`, the melting point fell in the range of 47 to 48 °C. Molecule `NC/C(=C/F)CCc1cccc(F)c1.O=C(O)C(F)(F)F` returned a melting point of 72 to 73 °C. To `NC/C(=C/F)CCc1cc(F)cc(C(F)(F)F)c1.O=C(O)C(F)(F)F` belongs 58 to 59 °C; to `COc1ccc(C/C(=C\F)CN)cc1OC.Cl`, 204 to 205 °C; to `COc1ccc(C/C(=C/F)CN)cc1OC.Cl`, 220 to 221 °C. In turn, `COc1cccc(CC/C=C(/F)CN)c1.Cl` returned a melting point of 112 to 113 °C.

`NCC(=CF)Cc1cccc(O)c1` (as salt: citrate) came in with a melting point of 145 to 146 °C.

The molecule `CSc1cccc(C/C(=C/F)CN)c1` (as salt: hydrochloride) registered a melting point of 145 to 146 °C. To `Cc1ccc(C/C(=C/F)CN)cc1` (as salt: hydrochloride) belongs 150 to 151 °C; to `NC/C(=C\F)Cc1ccc(-c2ccccc2)cc1` (as salt: hydrochloride), 219 to 220 °C; to `NC/C(=C\F)Cc1ccc(F)cc1` (as salt: hydrochloride), 139 to 140 °C. As to `NC/C(=C\F)Cc1cccc(C(F)(F)F)c1` (as salt: hydrochloride), the melting point is 161 to 162 °C. `Cc1ccc(C/C(=C/F)CN)cc1F` (as salt: hydrochloride) came in with a melting point of 160 to 161 °C. To `Cc1cc(C/C(=C/F)CN)ccc1F` (as salt: hydrochloride) belongs 158 to 159 °C. Next, `NC/C(=C\F)Cc1cc(F)cc(Cl)c1` (as salt: hydrochloride): 158 to 159 °C. Molecule `NC/C(=C\F)Cc1ccc(F)cc1F` (as salt: hydrochloride) gave a melting point of 130 to 131 °C.

Molecule `NC/C(=C\F)Cc1cc(Cl)cc(Cl)c1` (as salt: hydrochloride) returned a melting point of 184 to 185 °C.

In turn, `NC/C(=C\F)Cc1ccc(F)c(F)c1` (as salt: hydrochloride) displayed a melting point of 141 to 142 °C. Next, `NC/C(=C\F)Cc1cccc(Cl)c1` (as salt: hydrochloride): 145 to 146 °C; `NC/C(=C/Cl)CCc1ccccc1` (as salt: hydrochloride): 97 to 98 °C. To `NC/C(=C/Cl)CCc1ccc(C(F)(F)F)cc1` (as salt: hydrochloride) belongs 89 to 90 °C; to `COc1cc(C/C(=C/F)CN)cc(OC)c1` (as salt: hydrochloride), 194 to 195 °C; to `COCc1cccc(C/C=C(/F)CN)c1` (as salt: hydrochloride), 165 to 166 °C.

`Cc1cccc(C/C(=C/F)CN)c1` (as salt: hydrochloride) [Compound I-13, (Z)-3-Fluoro-2-(3-methylbenzyl)allylamine hydrochloride]: the melting point lay within 118 to 119 °C. Take `COc1ccc(C/C(=C/F)CN)cc1F` (as salt: hydrochloride) [Compound I-21, (Z)-3-Fluoro-2-(3-fluoro-4-methoxybenzyl)allylamine hydrochloride]: the melting point is 170 °C (dec.). Next, `NC/C(=C\F)Cc1ccc(F)c(Cl)c1` (as salt: hydrochloride) [Compound I-23, (Z)-3-Fluoro-2-(3-chloro-4-fluorobenzyl)allylamine hydrochloride]: 163 to 164 °C. `NC/C(=C\F)Cc1cc(F)ccc1F` (as salt: hydrochloride) [Compound I-24, (Z)-3-Fluoro-2-(2,5-difluorobenzyl)allylamine hydrochloride] gave a melting point of 105 to 106 °C.

Take `COc1ccc(CC/C(=C/Cl)CN)cc1` (as salt: hydrochloride) [Compound I-33, (Z)-3-Chloro-2-(4-methoxyphenylethyl)allylamine hydrochloride]: the melting point fell in the range of 123 to 124 °C.
